Reference: PubChem BioAssay (NCI)
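Results reflect a 48-hour exposure of cells in 96-well plates to compound at five concentrations. TGI: concentration producing complete growth inhibition.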

Assays:
Test in all cases: inhibition of tumour cell growth, NCI panel, 48 h
MCF7 breast = test system: MCF7 breast
UACC-62 melanoma = test system: UACC-62 melanoma
MDA-MB-435 = test system: MDA-MB-435
HS 578T breast = test system: HS 578T breast
HCC-2998 colon = test system: HCC-2998 colon
CAKI-1 renal = test system: CAKI-1 renal
NCI/ADR-RES ovarian = test system: NCI/ADR-RES ovarian
COLO 205 colon = test system: COLO 205 colon
NCI-H226 lung = test system: NCI-H226 lung
NCI-H460 lung = test system: NCI-H460 lung
BT-549 breast = test system: BT-549 breast
SK-MEL-5 melanoma = test system: SK-MEL-5 melanoma
SN12C renal = test system: SN12C renal
UACC-257 melanoma = test system: UACC-257 melanoma
PC-3 prostate = test system: PC-3 prostate
MALME-3M melanoma = test system: MALME-3M melanoma
SK-MEL-28 melanoma = test system: SK-MEL-28 melanoma
A498 renal = test system: A498 renal
HOP-92 NSCLC = test system: HOP-92 NSCLC

SMILES | TGI (MCF7 breast) [µM] | TGI (UACC-62 melanoma) [µM] | TGI (MDA-MB-435) [µM] | TGI (HS 578T breast) [µM] | TGI (HCC-2998 colon) [µM] | TGI (CAKI-1 renal) [µM] | TGI (NCI/ADR-RES ovarian) [µM] | TGI (COLO 205 colon) [µM] | TGI (NCI-H226 lung) [µM] | TGI (NCI-H460 lung) [µM] | TGI (BT-549 breast) [µM] | TGI (SK-MEL-5 melanoma) [µM] | TGI (SN12C renal) [µM] | TGI (UACC-257 melanoma) [µM] | TGI (PC-3 prostate) [µM] | TGI (MALME-3M melanoma) [µM] | TGI (SK-MEL-28 melanoma) [µM] | TGI (A498 renal) [µM] | TGI (HOP-92 NSCLC) [µM]
NC1Cc2ccccc2OC1=O (configuration not stated) | > 100 | > 100 | > 100 | > 100 | > 100 | > 100 | > 100 | > 100 | > 100 | > 100 | > 100 | > 100 | > 100 | > 100 | > 100 | > 100 | > 100 | – | –
CCOC(=O)c1c(N2CCCC2)ncn(C)c1=S | > 100 | > 100 | > 100 | > 100 | > 100 | > 100 | > 100 | > 100 | > 100 | > 100 | – | > 100 | > 100 | > 100 | > 100 | > 100 | > 100 | > 100 | > 100
N#CCN(CC#N)C1CC=CCC1N(CC#N)CC#N (configuration not stated) | > 100 | > 100 | > 100 | > 100 | – | > 100 | > 100 | > 100 | > 100 | > 100 | > 100 | > 100 | > 100 | > 100 | > 100 | > 100 | – | – | > 100
O=C(Nc1nnc(-c2c(Cl)c(Cl)c(Cl)c(Cl)c2-c2nc3cc(C(=O)c4ccccc4)ccc3[nH]2)o1)c1ccc(Cl)cc1 | > 100 | – | > 100 | – | – | > 100 | > 100 | 35.1 | > 100 | – | > 100 | 39.9 | 53 | > 100 | > 100 | – | > 100 | 43.4 | > 100
CCn1c(=O)c2nc(SC)sc2n(-c2ccccc2)c1=O | > 100 | – | > 100 | – | > 100 | – | > 100 | > 100 | > 100 | > 100 | – | > 100 | > 100 | > 100 | > 100 | > 100 | > 100 | – | > 100
O=C(Nc1cccc2ccccc12)c1ccccc1 | > 100 | > 100 | > 100 | > 100 | > 100 | > 100 | > 100 | > 100 | > 100 | > 100 | > 100 | > 100 | > 100 | > 100 | > 100 | > 100 | > 100 | > 100 | –
CCCC1(CCC)c2cc(/C=N\O)ccc2-c2ccc(-c3ccc(C(C)(C)C)cc3)cc21 | > 100 | – | – | > 100 | > 100 | > 100 | > 100 | > 100 | – | > 100 | – | > 100 | 53.5 | > 100 | > 100 | > 100 | 92.6 | – | > 100
COc1ccc(-n2c(=O)n(-c3ccccc3)c(=O)n2-c2ccc(OC)cc2)cc1 | > 100 | > 100 | > 100 | – | > 100 | 7.59 | > 100 | > 100 | > 100 | – | – | > 100 | > 100 | > 100 | > 100 | > 100 | > 100 | > 100 | > 100
CCC(O)c1ccc(N=Cc2ccccc2O)cc1 (configuration not stated) | > 100 | > 100 | > 100 | – | > 100 | > 100 | > 100 | > 100 | > 100 | > 100 | > 100 | > 100 | – | – | > 100 | > 100 | > 100 | > 100 | > 100
O=C1CCCCC/C1=C\c1ccccc1 | – | > 100 | > 100 | > 100 | > 100 | > 100 | – | > 100 | > 100 | > 100 | > 100 | > 100 | > 100 | > 100 | > 100 | > 100 | > 100 | > 100 | > 100
NC(=O)c1c(NC=O)ncn1C1OCC(O)C(O)C1O (configuration not stated) | – | > 100 | > 100 | > 100 | – | > 100 | > 100 | > 100 | > 100 | > 100 | > 100 | > 100 | > 100 | > 100 | > 100 | > 100 | – | – | > 100
CC/C=C/C[C@H](O)[C@H]1C[C@H]2O[C@H](CC(=O)OC)C[C@H]2O1 | > 100 | > 100 | > 100 | > 100 | > 100 | > 100 | > 100 | > 100 | > 100 | > 100 | > 100 | > 100 | > 100 | – | > 100 | > 100 | > 100 | > 100 | –
COC1CCC(=O)N1CN(C(C)=O)c1ccc(C)cc1 (configuration not stated) | > 100 | > 100 | > 100 | > 100 | > 100 | > 100 | > 100 | > 100 | > 100 | > 100 | – | > 100 | > 100 | > 100 | > 100 | – | > 100 | – | –
COc1ccccc1NCc1cccc2c(=O)c3ccc(Cl)cc3oc12 | > 100 | > 100 | > 100 | – | > 100 | > 100 | > 100 | > 100 | > 100 | – | > 100 | > 100 | > 100 | > 100 | > 100 | > 100 | > 100 | > 100 | > 100
CN1C(=O)CC2CCC(=O)N2c2cccnc21 (configuration not stated) | > 100 | > 100 | > 100 | > 100 | > 100 | > 100 | > 100 | > 100 | > 100 | > 100 | > 100 | > 100 | > 100 | > 100 | – | > 100 | > 100 | – | –
CC1C2=C(CCCC2=O)N(c2ccc(Cl)cc2)C2=C1C(=O)CCC2 | > 100 | > 100 | – | > 100 | > 100 | > 100 | > 100 | – | > 100 | > 100 | > 100 | > 100 | > 100 | – | > 100 | – | > 100 | > 100 | > 100
CN(C)c1cccc2c1C(=O)C=CC21CCc2ccc(N(C)C)c3c(N(C)C)ccc1c23 (configuration not stated) | 27.3 | 26.9 | 28.6 | 66.8 | – | 40 | > 100 | 29 | 33 | 28.7 | – | 30.1 | 26.5 | 25.1 | 27.4 | 24.4 | 30.4 | 15.3 | 41.8
CC1(C)CC(=O)c2c(nc3c(ccc4ccccc43)c2-c2ccc(NC(=O)CCCCC(=O)Nc3ccc(-c4c5c(nc6c4ccc4ccccc46)CC(C)(C)CC5=O)cc3)cc2)C1 | > 100 | – | > 100 | > 100 | – | > 100 | 77.6 | 65.1 | 54.9 | 91.8 | – | > 100 | 92.8 | > 100 | > 100 | – | > 100 | – | –
COc1ccc2c3c([nH]c2c1)CCN(Cc1ccccc1)C3 | 33.8 | > 100 | 60.6 | 56.9 | 34.1 | – | 98.3 | 38.5 | 73.2 | 37.7 | – | 32.6 | 78.2 | 42.5 | – | 34.6 | 38 | 46.5 | 25.6
O=S(=O)(O)c1ccc2c(N=Nc3ccc(Cl)cc3)c(O)ccc2c1 | – | > 100 | > 100 | > 100 | – | > 100 | > 100 | > 100 | – | – | > 100 | > 100 | > 100 | > 100 | > 100 | > 100 | > 100 | > 100 | > 100
COc1ccc2nc3n(c2c1)C(=O)c1ccccc1-3 | > 100 | > 100 | – | – | > 100 | > 100 | > 100 | > 100 | > 100 | > 100 | – | > 100 | > 100 | > 100 | > 100 | > 100 | > 100 | – | > 100
COc1ccc(N2C(=O)C3c4[nH]c5ccc(F)cc5c4C4CCC(C(C)(C)C)CC4C3C2=O)cc1 (configuration not stated) | > 10 | > 10 | > 10 | > 10 | > 10 | > 10 | > 10 | > 10 | > 10 | > 10 | – | > 10 | > 10 | – | > 10 | > 10 | > 10 | > 10 | –
COc1nc2c(c(=O)n1C)N=C(c1ccc(Cl)cc1)CC(c1ccccc1)N2 (configuration not stated) | 28.8 | 37.6 | > 100 | – | 35.8 | 74.5 | > 100 | > 100 | 45.6 | 28.1 | 67.5 | 38.2 | 54.4 | 67.9 | > 100 | – | > 100 | > 100 | > 100
CC(=O)C(=[N+]=[N-])C(=O)N(C)CCC#N | > 10 | > 10 | > 10 | – | – | – | – | – | > 10 | > 10 | > 10 | – | > 10 | > 10 | > 10 | > 10 | > 10 | > 10 | > 10
CNC(=O)OC(COC)CN1CCN(c2ccccc2C)CC1 (configuration not stated) | > 10 | > 10 | > 10 | > 10 | > 10 | > 10 | > 10 | > 10 | > 10 | > 10 | – | > 10 | > 10 | > 10 | > 10 | > 10 | > 10 | > 10 | > 10
Cc1ccc(O)c(C2=CC(c3cccc(Br)c3)SC(N)=N2)c1 (configuration not stated) | > 100 | 34.5 | 37.2 | 45 | – | > 100 | 71.9 | 34.6 | 71.5 | 49.8 | 83.6 | 32 | 40.7 | 41.3 | > 100 | 78.9 | – | – | 60.4
Cc1ccc2[nH]c3[nH]c(=S)[nH]c(=O)c3c2c1 | > 100 | > 100 | > 100 | > 100 | > 100 | > 100 | > 100 | > 100 | > 100 | – | > 100 | > 100 | > 100 | > 100 | – | > 100 | – | > 100 | > 100
CCOC(=O)c1cc(C2CCN(c3ccccc3)C2=O)c(C(=O)/C=C(/C)N)[nH]1 (configuration not stated) | > 100 | 40.1 | > 100 | 46.3 | > 100 | 81.6 | > 100 | > 100 | 80.4 | > 100 | > 100 | > 100 | 63.7 | > 100 | > 100 | 35.6 | > 100 | > 100 | –
NC(=Nc1cccc(Cl)c1)c1ccccc1N | > 100 | > 100 | > 100 | > 100 | > 100 | > 100 | > 100 | > 100 | > 100 | > 100 | > 100 | > 100 | – | > 100 | > 100 | > 100 | > 100 | > 100 | –
